This is an account of results in patent US20250136607A1 (REGOR PHARMACEUTICALS, INC., priority 2021, published 2025).

Each structure is given as a SMILES string. Read-outs that look alike come from different tables or passages of the source.

The target of test [1] is Protein arginine deiminase 4 (PAD4) (Homo sapiens, UniProt Q9UM07). Kind of test: PAD4 ammonia release assay. The test is classed as biochemical. The settings on record: PAD4 ammonia release assay, BAEE substrate, 60 min at RT; read-out: Average IC50 Abs. In short, it runs like this: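 PAD4 (20 nM, 2× working solution) was preincubated with compound for 15 min at RT in 100 mM HEPES pH 8.0, 2 mM CaCl2, 50 mM NaCl, 0.1 mM TCEP, BSA at 1.25% DMSO. BAEE (600 μM, 2× mix) reacted 60 min, then OPA/DTT/EDTA detection for 120 min. IC50 came from a 4-parameter fit, normalized to 50 μM reference (100%) and DMSO (0%).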

Test [2] concerns Citrullinated Histone H3 in dHL-60 cells (differentiated HL-60). Kind of test: dHL-60 Cit-H3 ELISA assay. Type of test: cell-based, human. Conditions: Homo sapiens, read-out: Average IC50 Abs. In short, it runs like this:
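HL-60 cells differentiated 72 h with DMF, plated at 1×10^5/well, pretreated 30 min with compound (8-point 3-fold series, 0.2% DMSO), then stimulated 3 h at 37 °C with 25 μM A23187 plus S7 nuclease. Supernatant citrullinated H3 quantified by HRP ELISA at 450 nm; IC50 by four-parameter fit.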
(In general: In an ELISA, binding on a coated surface is turned into a signal by an enzyme label.)

The mark [3] stands for this setting: HL-60, 3 h, stimulation with 25 μM A23187 for 3 h.

Sequence of Protein arginine deiminase 4 (PAD4) (Q9UM07 whole entry): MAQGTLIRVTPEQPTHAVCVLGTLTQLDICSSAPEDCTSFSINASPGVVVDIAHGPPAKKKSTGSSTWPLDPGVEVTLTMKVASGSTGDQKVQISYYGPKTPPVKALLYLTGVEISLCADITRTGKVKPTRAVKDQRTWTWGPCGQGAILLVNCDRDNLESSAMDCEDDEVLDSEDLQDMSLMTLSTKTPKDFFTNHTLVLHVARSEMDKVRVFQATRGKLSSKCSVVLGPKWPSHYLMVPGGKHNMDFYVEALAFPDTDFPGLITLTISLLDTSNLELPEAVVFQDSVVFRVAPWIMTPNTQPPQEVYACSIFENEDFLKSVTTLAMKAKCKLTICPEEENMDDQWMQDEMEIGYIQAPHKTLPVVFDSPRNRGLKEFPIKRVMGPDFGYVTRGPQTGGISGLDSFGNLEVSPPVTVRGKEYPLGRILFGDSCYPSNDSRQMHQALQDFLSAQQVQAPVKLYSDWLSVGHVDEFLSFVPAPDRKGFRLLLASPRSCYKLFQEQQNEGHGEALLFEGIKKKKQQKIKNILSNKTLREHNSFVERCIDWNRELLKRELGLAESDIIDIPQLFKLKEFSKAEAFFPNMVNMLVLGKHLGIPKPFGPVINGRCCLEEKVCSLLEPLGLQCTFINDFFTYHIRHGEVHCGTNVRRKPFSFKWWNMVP

In the case of `Cn1c(-c2cc3cccc4c3n2C(C2CC2)CN4CCCO)nc2cc(C(=O)N3C[C@H]4CC[C@@H]3[C@@H]4N)cc(F)c21` (mixture of isomers) [Example 111, [(1R,4R,7R)-7-amino-2-azabicyclo[2.2.1]heptan-2-yl]-[2-[11-cyclopropyl-9-(3-hydroxypropyl)-1,9-diazatricyclo[6.3.1.04,12]dodeca-2,4(12), 5,7-tetraen-2-yl]-7-fluoro-1-methyl-benzimidazol-5-yl]methanone], the IC50 in test [1] and in test [2] (setting [3]) was at most 0.1 µM throughout.

As for `CCN1CCc2c(ccc3cc(-c4nc5cc(C(=O)N6C[C@H]7CC[C@@H]6[C@@H]7N)cc(F)c5n4C)n(CC4CC4)c23)C1` [Example 153, ((1R,4R,7R)-7-amino-2-azabicyclo[2.2.1]heptan-2-yl)(2-(1-(cyclopropylmethyl)-7-ethyl-6,7,8,9-tetrahydro-1H-pyrrolo[2,3-f]isoquinolin-2-yl)-7-fluoro-1-methyl-1H-benzo[d]imidazol-5-yl)methanone], the half-maximal inhibitory concentration (IC50) in test [1] and in test [2] (setting [3]) was 0.1 to 0.5 µM in each case.

Consider `COc1cc(C(=O)N2CCC[C@@H](N)C2)cc2nc(-c3cc4cccc5c4n3CCN5CCCO)n(Cc3cnn(C)c3)c12` [Example 44, (R)-(3-aminopiperidin-1-yl)(2-(1-(3-hydroxypropyl)-2,3-dihydro-1H-pyrrolo[1,2,3-de]quinoxalin-5-yl)-7-methoxy-1-((1-methyl-1H-pyrazol-4-yl)methyl)-1H-benzo[d]imidazol-5-yl)methanone], for which the IC50 (in general, the concentration that gives 50% inhibition) in test [1] was in the range of 0.1 to 0.5 µM; in test [2] (setting [3]) it was 0.5 to 5 µM.

As to `CCC1CN(CCCO)c2cccc3cc(-c4nc5cc(C(=O)N6C[C@H]7CC[C@@H]6[C@@H]7N)cc(F)c5n4CC4COC4)n1c23` (stereo partly drawn) [Example 92, ((1R,4R,7R)-7-amino-2-azabicyclo[2.2.1]heptan-2-yl)(2-(3-ethyl-1-(3-hydroxypropyl)-2,3-dihydro-1H-pyrrolo[1,2,3-de]quinoxalin-5-yl)-7-fluoro-1-(oxetan-3-ylmethyl)-1H-benzo[d]imidazol-5-yl)methanone], the results for the IC50 in test [1] and in test [2] (setting [3]) were 0.1 to 0.5 µM and at most 0.1 µM, respectively.

Regarding `Cn1c(-c2cc3ccc4c(c3n2CC2CC2)NCCO4)nc2cc(C(=O)N3C[C@H]4CC[C@@H]3[C@@H]4N)cc(F)c21` [Example 158, ((1R,4R,7R)-7-amino-2-azabicyclo[2.2.1]heptan-2-yl)(2-(9-(cyclopropylmethyl)-1,2,3,9-tetrahydro-[1,4]oxazino[2,3-g]indol-8-yl)-7-fluoro-1-methyl-1H-benzo[d]imidazol-5-yl)methanone], the IC50 in test [1] and in test [2] (setting [3]) was at most 0.1 µM each time.

On to `CCC1CNc2cc(F)cc3cc(-c4nc5cc(C(=O)N6C[C@H]7CC[C@@H]6[C@@H]7N)cc(F)c5n4C)n1c23` (stereo partly drawn) [Example 130, ((1R,4R,7R)-7-amino-2-azabicyclo[2.2.1]heptan-2-yl)(2-(3-ethyl-8-fluoro-2,3-dihydro-1H-pyrrolo[1,2,3-de]quinoxalin-5-yl)-7-fluoro-1-methyl-1H-benzo[d]imidazol-5-yl)methanone], for which the 50% inhibitory concentration (IC50) in test [1] and in test [2] (setting [3]) was 0.1 to 0.5 µM each time.

For `CCn1cc(Cn2c(-c3cc4cccc5c4n3CCN5CCCO)nc3cc(C(=O)N4C[C@H](N)C[C@@H](F)C4)cc(OC)c32)cn1` [Example 34, ((3R,5R)-3-amino-5-fluoropiperidin-1-yl)(1-((1-ethyl-1H-pyrazol-4-yl)methyl)-2-(1-(3-hydroxypropyl)-2,3-dihydro-1H-pyrrolo[1,2,3-de]quinoxalin-5-yl)-7-methoxy-1H-benzo[d]imidazol-5-yl)methanone], the half-maximal inhibitory concentration (IC50) is at most 0.1 µM in test [1] and 0.5 to 5 µM in test [2] (HL-60, stimulation with 25 μM A23187 for 3 h).

For the compound `CCC1CNc2cccc3cc(-c4nc5cc(C(=O)N6C[C@H]7CC[C@@H]6[C@@H]7N)cc(F)c5n4C)n1c23` (stereo partly drawn) [Example 72, ((1R,4R,7R)-7-amino-2-azabicyclo[2.2.1]heptan-2-yl)(2-(3-ethyl-2,3-dihydro-1H-pyrrolo[1,2,3-de]quinoxalin-5-yl)-7-fluoro-1-methyl-1H-benzo[d]imidazol-5-yl)methanone], the concentration for half-maximal inhibition (IC50) in test [1] and in test [2] (setting [3]) was 0.1 to 0.5 µM throughout.

On to `COc1cc(C(=O)N2C[C@H](N)C[C@@H](F)C2)cc2nc(-c3cc4cccc5c4n3CCN5CCCO)n(CC3CC(F)(F)C3)c12` [Example 50, ((3R,5R)-3-amino-5-fluoropiperidin-1-yl)(1-((3,3-difluorocyclobutyl)methyl)-2-(1-(3-hydroxypropyl)-2,3-dihydro-1H-pyrrolo[1,2,3-de]quinoxalin-5-yl)-7-methoxy-1H-benzo[d]imidazol-5-yl)methanone], for which the IC50 was at most 0.1 µM in test [1] and 0.1 to 0.5 µM in test [2] (setting [3]).

Regarding `Cn1c(-c2cc3ccc4cc[nH]c4c3n2CC2CC2)nc2cc(C(=O)N3C[C@H]4CC[C@@H]3[C@@H]4N)cc(F)c21` [Example 148, ((1R,4R,7R)-7-amino-2-azabicyclo[2.2.1]heptan-2-yl)(2-(1-(cyclopropylmethyl)-1,8-dihydropyrrolo[3,2-g]indol-2-yl)-7-fluoro-1-methyl-1H-benzo[d]imidazol-5-yl)methanone], the half-inhibitory concentration (IC50) in test [1] and in test [2] (setting [3]) was at most 0.1 µM throughout.

Regarding `CCC1CN(CCC(C)(C)O)c2cccc3cc(-c4nc5cc(C(=O)N6C[C@H]7CC[C@@H]6[C@@H]7N)cc(F)c5n4C)n1c23` (stereo partly drawn) [Example 88, ((1R,4R,7R)-7-amino-2-azabicyclo[2.2.1]heptan-2-yl)(2-(3-ethyl-1-(3-hydroxy-3-methylbutyl)-2,3-dihydro-1H-pyrrolo[1,2,3-de]quinoxalin-5-yl)-7-fluoro-1-methyl-1H-benzo[d]imidazol-5-yl)methanone], the IC50 in test [1] and in test [2] (setting [3]) was 0.1 to 0.5 µM throughout.

With `Cn1c(-c2cc3ccc(C#N)c4c3n2C(C2CC2)CN4)nc2cc(C(=O)N3C[C@H]4CC[C@@H]3[C@@H]4N)cc(F)c21` (mixture of isomers) [Example 114, 5-(5-((1R,4R,7R)-7-amino-2-azabicyclo[2.2.1]heptane-2-carbonyl)-7-fluoro-1-methyl-1H-benzo[d]imidazol-2-yl)-3-cyclopropyl-2,3-dihydro-1H-pyrrolo[1,2,3-de]quinoxaline-9-carbonitrile], the concentration for half-maximal inhibition (IC50) in test [1] and in test [2] (setting [3]) was at most 0.1 µM each time.

With `CCn1cc(Cn2c(-c3cc4cccc5c4n3CCN5)nc3cc(C(=O)N4C[C@H](N)C[C@@H](F)C4)cc(F)c32)cn1` [Example 40, ((3R,5R)-3-amino-5-fluoropiperidin-1-yl)(2-(2,3-dihydro-1H-pyrrolo[1,2,3-de]quinoxalin-5-yl)-1-((1-ethyl-1H-pyrazol-4-yl)methyl)-7-fluoro-1H-benzo[d]imidazol-5-yl)methanone], the half-inhibitory concentration (IC50) was 0.1 to 0.5 µM in test [1] and 0.5 to 5 µM in test [2] (setting [3]).

For the compound `COc1cc(C(=O)N2C[C@H](N)C[C@@H](F)C2)cc2nc(-c3cc4cccc5c4n3CCN5CCCO)n(Cc3cnn(C)c3)c12` [Example 43, ((3R,5R)-3-amino-5-fluoropiperidin-1-yl)(2-(1-(3-hydroxypropyl)-2,3-dihydro-1H-pyrrolo[1,2,3-de]quinoxalin-5-yl)-7-methoxy-1-((1-methyl-1H-pyrazol-4-yl)methyl)-1H-benzo[d]imidazol-5-yl)methanone], the concentration for half-maximal inhibition (IC50) in test [1] is at most 0.1 µM; in test [2] (setting [3]), 0.5 to 5 µM.
